Reference: patent US20240109917A1 (ACTELION PHARMACEUTICALS LTD, priority 2020, published 2024)

How the values were obtained:
[1] = target: His6-TEV-PDGFRβ (557-1016) (Homo sapiens (Human), UniProt P09619); test: PDGFRβ HTRF Assay; type: biochemical; conditions: read-out: PDGFR HTRF IC50
Outline: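 Human PDGFRβ (557-1016) pre-incubated with compound for 30 min at RT in pH 7.5 HEPES/MgCl2/EGTA/Brij-35/DTT buffer. Reaction started with ATP and TK-biotin peptide, run 3 h at RT, then quenched with EDTA-containing Eu-cryptate antibody/streptavidin-XL665. HTRF 665/620 nm ratio read after 60 min; percent inhibition relative to DMSO and 10 μM imatinib controls.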

[2] = target: Tb-labeled inactive PDGFRβ (Homo sapiens (Human), UniProt P09619); test: PDGFRβ LanthaScreen Assay; type: binding; conditions: read-out: PDGFR Lantha IC50
[3] = target: VEGFR2, unphosphorylated (Homo sapiens (Human), UniProt P35968); test: VEGFR ADP GLO Assay; type: biochemical
Chain of VEGFR2, unphosphorylated (P35968 20-1356): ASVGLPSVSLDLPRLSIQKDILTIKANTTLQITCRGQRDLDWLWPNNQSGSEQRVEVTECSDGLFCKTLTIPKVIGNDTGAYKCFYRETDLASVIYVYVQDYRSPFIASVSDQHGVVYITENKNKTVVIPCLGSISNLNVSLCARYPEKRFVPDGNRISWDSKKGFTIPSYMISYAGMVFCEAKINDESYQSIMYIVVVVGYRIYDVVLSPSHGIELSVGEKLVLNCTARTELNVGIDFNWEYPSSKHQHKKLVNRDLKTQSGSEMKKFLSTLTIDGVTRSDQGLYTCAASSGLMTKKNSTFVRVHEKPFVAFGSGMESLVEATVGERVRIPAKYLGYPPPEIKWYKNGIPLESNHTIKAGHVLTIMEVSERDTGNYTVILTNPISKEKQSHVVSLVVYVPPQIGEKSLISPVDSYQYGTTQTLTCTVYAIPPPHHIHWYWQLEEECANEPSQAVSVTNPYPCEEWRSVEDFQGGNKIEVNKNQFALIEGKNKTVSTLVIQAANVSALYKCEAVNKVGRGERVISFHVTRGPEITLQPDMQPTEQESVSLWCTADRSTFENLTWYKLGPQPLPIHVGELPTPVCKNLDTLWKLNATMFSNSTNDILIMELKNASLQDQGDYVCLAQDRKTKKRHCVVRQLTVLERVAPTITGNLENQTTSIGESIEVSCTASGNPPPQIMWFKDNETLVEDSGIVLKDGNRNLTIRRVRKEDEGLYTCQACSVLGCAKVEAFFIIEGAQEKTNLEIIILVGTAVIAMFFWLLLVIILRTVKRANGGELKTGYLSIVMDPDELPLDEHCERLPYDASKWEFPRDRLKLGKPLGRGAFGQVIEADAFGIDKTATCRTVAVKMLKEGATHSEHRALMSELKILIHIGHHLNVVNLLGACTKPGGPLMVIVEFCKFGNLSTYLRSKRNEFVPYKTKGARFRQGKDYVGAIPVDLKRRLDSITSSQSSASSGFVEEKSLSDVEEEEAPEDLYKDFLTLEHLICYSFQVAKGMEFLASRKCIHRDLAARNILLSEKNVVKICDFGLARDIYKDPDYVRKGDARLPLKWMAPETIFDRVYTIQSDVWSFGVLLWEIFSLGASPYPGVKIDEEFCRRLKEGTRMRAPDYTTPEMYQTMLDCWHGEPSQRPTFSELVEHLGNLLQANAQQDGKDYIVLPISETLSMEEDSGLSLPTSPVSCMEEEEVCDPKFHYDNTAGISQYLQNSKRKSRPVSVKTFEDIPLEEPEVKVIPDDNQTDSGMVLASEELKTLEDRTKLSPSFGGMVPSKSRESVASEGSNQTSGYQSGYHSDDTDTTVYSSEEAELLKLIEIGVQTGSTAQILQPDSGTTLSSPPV

Chain of Tb-labeled inactive PDGFRβ (P09619 33-1106): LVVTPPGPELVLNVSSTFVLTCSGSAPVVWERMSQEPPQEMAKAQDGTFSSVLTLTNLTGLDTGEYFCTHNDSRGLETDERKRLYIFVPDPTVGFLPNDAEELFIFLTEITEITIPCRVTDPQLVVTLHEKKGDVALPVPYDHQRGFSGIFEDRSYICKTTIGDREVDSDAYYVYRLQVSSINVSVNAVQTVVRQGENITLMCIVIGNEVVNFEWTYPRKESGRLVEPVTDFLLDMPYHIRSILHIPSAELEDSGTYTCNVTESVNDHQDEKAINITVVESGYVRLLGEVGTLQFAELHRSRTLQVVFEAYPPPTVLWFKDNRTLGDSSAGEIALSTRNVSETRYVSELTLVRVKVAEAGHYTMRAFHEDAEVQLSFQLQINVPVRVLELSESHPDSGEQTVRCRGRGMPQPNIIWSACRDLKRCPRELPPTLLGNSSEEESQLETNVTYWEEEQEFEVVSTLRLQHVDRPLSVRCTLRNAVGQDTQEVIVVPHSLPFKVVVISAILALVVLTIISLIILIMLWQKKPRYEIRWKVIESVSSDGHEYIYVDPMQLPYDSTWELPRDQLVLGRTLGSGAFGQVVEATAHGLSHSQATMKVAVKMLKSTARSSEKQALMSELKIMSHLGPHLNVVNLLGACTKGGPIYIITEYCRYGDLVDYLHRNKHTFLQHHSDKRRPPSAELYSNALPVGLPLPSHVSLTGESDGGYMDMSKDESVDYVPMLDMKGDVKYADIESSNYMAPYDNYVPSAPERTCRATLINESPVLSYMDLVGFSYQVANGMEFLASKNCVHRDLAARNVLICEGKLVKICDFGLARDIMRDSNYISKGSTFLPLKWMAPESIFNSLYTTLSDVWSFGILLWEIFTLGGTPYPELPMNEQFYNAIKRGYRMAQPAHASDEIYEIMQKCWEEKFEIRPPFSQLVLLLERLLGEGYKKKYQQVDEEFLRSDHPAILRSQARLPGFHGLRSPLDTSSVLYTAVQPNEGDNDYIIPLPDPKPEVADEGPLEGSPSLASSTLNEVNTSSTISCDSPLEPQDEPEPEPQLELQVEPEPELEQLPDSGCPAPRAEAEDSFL
Chain of His6-TEV-PDGFRβ (557-1016) (P09619 557-1016): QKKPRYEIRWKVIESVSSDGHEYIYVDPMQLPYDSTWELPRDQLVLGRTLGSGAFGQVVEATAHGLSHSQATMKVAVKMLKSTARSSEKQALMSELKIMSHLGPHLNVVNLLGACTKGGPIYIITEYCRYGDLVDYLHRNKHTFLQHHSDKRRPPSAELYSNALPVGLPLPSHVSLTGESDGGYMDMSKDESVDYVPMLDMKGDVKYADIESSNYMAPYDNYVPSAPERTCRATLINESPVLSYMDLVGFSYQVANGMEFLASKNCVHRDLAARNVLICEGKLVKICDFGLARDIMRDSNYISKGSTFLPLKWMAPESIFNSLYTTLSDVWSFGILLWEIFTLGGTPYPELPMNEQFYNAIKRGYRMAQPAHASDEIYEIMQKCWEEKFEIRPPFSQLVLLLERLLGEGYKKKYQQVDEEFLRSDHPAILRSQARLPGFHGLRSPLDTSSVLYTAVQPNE

SMILES	IC50 [1] [nM]	IC50 [2] [nM]	IC50 [3] [nM]
Cc1ncc(NC(=O)CN(C)C2CCOCC2)cc1NC(=O)c1cnn2cc(-c3cnn(C)c3)sc12 [Example 15, 2-(1-methyl-1H-pyrazol-4-yl)-N-(2-methyl-5-(2-(methyl(tetrahydro-2H-pyran-4-yl)amino)acetamido)pyridin-3-yl)pyrazolo[5,1-b]thiazole-7-carboxamide]	0.5	4.7	> 7500
Cc1cc(C(=O)NCCN2CCCC2(C)C)sc1NC(=O)c1cnn2cc(-c3cnn(C)n3)sc12 [Example 186, N-(5-((2-(2,2-dimethylpyrrolidin-1-yl)ethyl)carbamoyl)-3-methylthiophen-2-yl)-2-(2-methyl-2H-1,2,3-triazol-4-yl)pyrazolo[5,1-b]thiazole-7-carboxamide]	41.4	2250	> 7500
Cc1ncc(NC(=O)CCN2CCCC2(C)C)cc1NC(=O)c1cnn2cc(-c3ccn(C)n3)sc12 [Example 12, N-(5-(3-(2,2-dimethylpyrrolidin-1-yl)propanamido)-2-methyl-pyridin-3-yl)-2-(1-methyl-1H-pyrazol-3-yl)pyrazolo[5,1-b]thiazole-7-carboxamide]	0.3	3.3	> 7500
Cc1cc(C(=O)NCCN2CCCC2(C)C)sc1NC(=O)c1cnn2cc(-c3ccncc3)sc12 [Example 187, N-(5-((2-(2,2-dimethylpyrrolidin-1-yl)ethyl)carbamoyl)-3-methylthiophen-2-yl)-2-(pyridin-4-yl)pyrazolo[5,1-b]thiazole-7-carboxamide]	27.7	1190	> 7500
Cc1ncc(NC(=O)OCC(C)(C)N2CCCC2)cc1NC(=O)c1cnn2cc(-c3cnn(C)c3)sc12 [Example 249, 2-methyl-2-(pyrrolidin-1-yl)propyl (6-methyl-5-(2-(1-methyl-1H-pyrazol-4-yl)pyrazolo[5,1-b]thiazole-7-carboxamido)pyridin-3-yl)carbamate]	0.5	6.5	> 7500
Cc1ncc(C(=O)NCCN2CC3CCC2C3)cc1NC(=O)c1cnn2cc(-c3cnn(C)c3C)sc12 (stereo not drawn) [Example 210, N-(5-((2-(2-azabicyclo[2.2.1]heptan-2-yl)ethyl)carbamoyl)-2-methylpyridin-3-yl)-2-(1,5-dimethyl-1H-pyrazol-4-yl)pyrazolo[5,1-b]thiazole-7-carboxamide]	0.3	2.6	> 7500
Cc1ncc(C(=O)NC2CN(C(C)(C)C)C2)cc1NC(=O)c1cnn2cc(-c3cnn(C)c3)sc12 [Example 237, N-(5-((1-(tert-butyl)azetidin-3-yl)carbamoyl)-2-methylpyridin-3-yl)-2-(1-methyl-1H-pyrazol-4-yl)pyrazolo[5,1-b]thiazole-7-carboxamide]	1.4	57.2	> 7500
Cc1ncc(NC(=O)OC2CN(C(C)(C)C)C2)cc1NC(=O)c1cnn2cc(-c3cnn(C)c3)sc12 [Example 252, 1-(tert-butyl)azetidin-3-yl (6-methyl-5-(2-(1-methyl-1H-pyrazol-4-yl)pyrazolo[5,1-b]thiazole-7-carboxamido)pyridin-3-yl)carbamate]	1.1	53.2	> 7500
Cc1ncc(NC(=O)CCCN2CCC23CCC3)cc1NC(=O)c1cnn2cc(-c3cnn(C)c3)sc12 [Example 215, N-(5-(4-(1-azaspiro[3.3]heptan-1-yl)butanamido)-2-methylpyridin-3-yl)-2-(1-methyl-1H-pyrazol-4-yl)pyrazolo[5,1-b]thiazole-7-carboxamide]	0.5	16.8	> 7500
Cc1ncc(C(=O)NCCN2CCCC2)cc1NC(=O)c1cnn2cc(-c3c(C)nn(C)c3C)sc12 [Example 223, N-(2-methyl-5-((2-(pyrrolidin-1-yl)ethyl)carbamoyl)pyridin-3-yl)-2-(1,3,5-trimethyl-1H-pyrazol-4-yl)pyrazolo[5,1-b]thiazole-7-carboxamide]	0.6	5.7	> 833
Cc1ncc(C(=O)NCCN2CCCC2(C)C)cc1NC(=O)c1cnn2cc(-c3cn(C)nc3CO)sc12 [Example 224, N-(5-((2-(2,2-dimethylpyrrolidin-1-yl)ethyl)carbamoyl)-2-methylpyridin-3-yl)-2-(3-(hydroxymethyl)-1-methyl-1H-pyrazol-4-yl)pyrazolo[5,1-b]thiazole-7-carboxamide]	1.4	11.2	> 2500
Cc1cc(C(=O)NCCN2CCCC2(C)C)sc1NC(=O)c1cnn2cc(-c3ccc(N)nc3)sc12 [Example 184, 2-(6-aminopyridin-3-yl)-N-(5-((2-(2,2-dimethylpyrrolidin-1-yl)ethyl)carbamoyl)-3-methylthiophen-2-yl)pyrazolo[5,1-b]thiazole-7-carboxamide]	15.9	829	> 7500
Cc1ncc(NC(=O)OC[C@H]2CCCN2C)cc1NC(=O)c1cnn2cc(-c3cnn(C)c3)sc12 [Example 244, (R)-(1-methylpyrrolidin-2-yl)methyl (6-methyl-5-(2-(1-methyl-1H-pyrazol-4-yl)pyrazolo[5,1-b]thiazole-7-carboxamido)pyridin-3-yl)carbamate]	0.5	15.3	> 7500
COc1ncccc1-c1cn2ncc(C(=O)Nc3cc(C(=O)NCCN4CCCC4(C)C)cnc3C)c2s1 [Example 226, N-(5-((2-(2,2-Dimethylpyrrolidin-1-yl)ethyl)carbamoyl)-2-methylpyridin-3-yl)-2-(2-methoxypyridin-3-yl)pyrazolo[5,1-b]thiazole-7-carboxamide]	0.2	1.3	> 2500
Cc1ncc(C(=O)NCCN2CCCC2(C)C)cc1NC(=O)c1cnn2cc(-c3cnn(CCC(O)CO)c3)sc12 (stereo not drawn) [Example 221, 2-(1-(3,4-Dihydroxybutyl)-1H-pyrazol-4-yl)-N-(5-((2-(2,2-dimethylpyrrolidin-1-yl)ethyl)carbamoyl)-2-methylpyridin-3-yl)pyrazolo[5,1-b]thiazole-7-carboxamide]	0.9	7.1	> 7500
Cc1ncc(NC(=O)OC[C@@H]2CCCN2C)cc1NC(=O)c1cnn2cc(-c3cnn(C)c3)sc12 [Example 243, (S)-(1-methylpyrrolidin-2-yl)methyl (6-methyl-5-(2-(1-methyl-1H-pyrazol-4-yl)pyrazolo[5,1-b]thiazole-7-carboxamido)pyridin-3-yl)carbamate]	0.5	13.1	> 7500
Cc1cc(C(=O)NCCN2CCC(O)CC2)sc1NC(=O)c1cnn2cc(-c3cnn(C)c3)sc12 [Example 191, N-(5-((2-(4-hydroxypiperidin-1-yl)ethyl)carbamoyl)-3-methylthiophen-2-yl)-2-(1-methyl-1H-pyrazol-4-yl)pyrazolo[5,1-b]thiazole-7-carboxamide]	248	> 3000	> 7500
Cc1ncc(C(=O)NCCNCCO)cc1NC(=O)c1cnn2cc(-c3cnn(C)c3)sc12 [Example 234, N-(5-((2-((2-hydroxyethyl)amino)ethyl)carbamoyl)-2-methylpyridin-3-yl)-2-(1-methyl-1H-pyrazol-4-yl)pyrazolo[5,1-b]thiazole-7-carboxamide]	4.6	283	> 7500
COCCn1cc(-c2cn3ncc(C(=O)Nc4cc(NC(=O)CCCN5CCC[C@@H]5C)cnc4C)c3s2)cn1 [Example 216, (S)-2-(1-(2-methoxyethyl)-1H-pyrazol-4-yl)-N-(2-methyl-5-(4-(2-methylpyrrolidin-1-yl)butanamido)pyridin-3-yl)pyrazolo[5,1-b]thiazole-7-carboxamide]	1.5	47.8	> 7500
Cc1ncc(NC(=O)OC[C@@H]2CCCN2C(C)C)cc1NC(=O)c1cnn2cc(-c3cnn(C)c3)sc12 [Example 245, (S)-(1-isopropylpyrrolidin-2-yl)methyl (6-methyl-5-(2-(1-methyl-1H-pyrazol-4-yl)pyrazolo[5,1-b]thiazole-7-carboxamido)pyridin-3-yl)carbamate]	0.4	10.8	> 7500
Cc1ncc(NC(=O)CN2CCc3cnn(C)c3C2)cc1NC(=O)c1cnn2cc(-c3cnn(C)c3)sc12 [Example 17, 2-(1-methyl-1H-pyrazol-4-yl)-N-(2-methyl-5-(2-(1-methyl-4,5-dihydro-1H-pyrazolo[3,4-c]pyridin-6 (7H)-yl)acetamido)pyridin-3-yl)pyrazolo[5,1-b]thiazole-7-carboxamide]	0.5	6	> 7500
Cc1cc(C(=O)NCC(C)(C)N2CCCC2)sc1NC(=O)c1cnn2cc(-c3cnn(C)c3)sc12 [Example 202, 2-(1-methyl-1H-pyrazol-4-yl)-N-(3-methyl-5-((2-methyl-2-(pyrrolidin-1-yl)propyl)carbamoyl)thiophen-2-yl)pyrazolo[5,1-b]thiazole-7-carboxamide]	1070	> 3000	> 7500
Cc1ncc(C(=O)NCCN2CCCC23CCC3)cc1NC(=O)c1cnn2cc(-c3c(C)nn(C)c3C)sc12 [Example 214, N-(5-((2-(5-azaspiro[3.4]octan-5-yl)ethyl)carbamoyl)-2-methylpyridin-3-yl)-2-(1,3,5-trimethyl-1H-pyrazol-4-yl)pyrazolo[5,1-b]thiazole-7-carboxamide]	0.3	1.8	> 7500
